The results in this text go back to ChEMBL document CHEMBL1121748, “Antimycotic imidazoles. 5. Synthesis and antimycotic properties of 1-[[2-aryl-4-(arylalkyl)-1,3-dioxolan-2-yl]methyl]-1H-imidazoles” (1981).

The subject of one test is Aspergillus fumigatus. Description: Antifungal activity against Aspergillus fumigatus. Type of test: functional.
The next test concerns Candida tropicalis. As to the kind of experiment: Antifungal activity against Candida tropicalis. The class given is functional.
Test [1] has as its system Erysipelothrix rhusiopathiae. Description: Antibacterial activity against Erysipelothrix insidiosa. Type of test: functional.
The next test deals with Microsporum canis. Description: Antifungal activity against Microsporum canis. The class given is functional.
Another test has as its system Mucor. Description: Antifungal activity against Mucor species. The class given is functional.
The test system of a further test is Phialophora verrucosa. Description: Antifungal activity against Phialophora verrucosa. The class given is functional.
The next test deals with Saprolegnia. As to the kind of experiment: Antifungal activity against Saprolegnia species. The class given is functional.
A further test has as its system Sporothrix schenckii. Description: Antifungal activity against Sporothrix schenck ii. The class given is functional.
The test system of a further test is Streptococcus pyogenes. As to the kind of experiment: Antibacterial activity against Streptococcus pyogenes. Type of test: functional.
Test [2] relates to Staphylococcus haemolyticus. Description: Antibacterial against Staphylococcus hemolyticus. Type of test: functional.
The test system of the next test is Trichophyton benhamiae. Description: Antifungal activity against Trichophyton mentagrophytes. Type of test: functional, trychophyton mentagrophytes.
Test [3] in a line: Ratio of animals cured to that of animals […], Tested in vivo for antifungal activity against vaginal candidosis in rat; 0/2. The class given is functional.
Test [4] is described as follows: Ratio of animals cured to that of animals infected, tested in vivo for antifungal activity against cutaneous candidosis in guinea pig; 2/2. Note: test concentration or dose not given here. Type of test: functional.
The subject of a further test is Trichophyton rubrum. As to the kind of experiment: Antifungal activity against Trichophyton rubrum. Type of test: functional.
The subject of another test is Cryptococcus neoformans. Description: Antifungal activity against Cryptococcus neoformans. Type of test: functional.
Another test has as its system Candida albicans. Description: Antifungal activity against Candida albicans. The class given is functional.
A short description of test [5]: Ratio of animals cured to that of animals infected, tested in vivo for antifungal activity against cutaneous candidosis in guinea pig; 1/2. The class given is functional.
The nature of test [6]: Ratio of animals cured to that of animals infected, tested in vivo for antifungal activity against vaginal candidosis in rat; 0/2. Note: test concentration or dose not given here.
The nature of test [7]: Ratio of animals cured to that of animals infected, tested in vivo for antifungal activity against vaginal candidosis in rat; 2/2.

With `Clc1ccc(C2(Cn3ccnc3)OCC(Cc3ccccc3)O2)c(Cl)c1` (stereo not given), the Inhibition in the test with Aspergillus fumigatus is less than 1 µg/mL; in the test with Candida tropicalis, 10 µg/mL; in test [1], less than 1 µg/mL; with Microsporum canis, less than 1 µg/mL; in the test on Mucor, 10 µg/mL; in the test with Phialophora verrucosa, 100 µg/mL. Further, the Inhibition in the test on Saprolegnia is 10 µg/mL; in the test with Sporothrix schenckii, 10 µg/mL; in the test with Streptococcus pyogenes it was 10 µg/mL; in test [2] it was 10 µg/mL; with Trichophyton benhamiae it was less than 1 µg/mL; in the test on Trichophyton rubrum, less than 1 µg/mL. In addition, the values for the Inhibition in the test on Cryptococcus neoformans and in the test on Candida albicans were less than 1 µg/mL and 100 µg/mL, respectively. In addition, the Ratio was 0 in [3] and 2 in [4].

Take `COc1ccc(CC2COC(Cn3ccnc3)(c3ccc(Cl)cc3Cl)O2)cc1` (stereo not given): the Inhibition is less than 1 µg/mL with Microsporum canis; 10 µg/mL in the test on Phialophora verrucosa; 10 µg/mL with Saprolegnia; less than 1 µg/mL in the test with Streptococcus pyogenes; 100 µg/mL in test [2]; less than 1 µg/mL with Trichophyton benhamiae. The Ratio in test [3] is 0.

`Cc1ccc(C2COC(Cn3ccnc3)(c3ccc(Cl)cc3)O2)cc1` (stereo not given): the Inhibition with Aspergillus fumigatus was less than 1 µg/mL; in the test with Candida tropicalis it was more than 100 µg/mL; in test [1], less than 1 µg/mL; in the test with Microsporum canis it was less than 1 µg/mL; with Mucor, 100 µg/mL; in the test on Phialophora verrucosa it was 100 µg/mL. Moreover, the Inhibition is 100 µg/mL in the test on Saprolegnia; 10 µg/mL in the test with Sporothrix schenckii; less than 1 µg/mL in the test with Streptococcus pyogenes; 100 µg/mL in test [2]; less than 1 µg/mL in the test on Trichophyton benhamiae; less than 1 µg/mL in the test with Trichophyton rubrum. Besides, the Inhibition was less than 1 µg/mL in the test on Cryptococcus neoformans and 100 µg/mL in the test on Candida albicans. Also, in [3], the Ratio was determined as 0.

With `Clc1ccc(C2(Cn3ccnc3)OCC(CCc3ccc(-c4ccccc4)cc3)O2)c(Cl)c1` (stereo not given), the Inhibition with Aspergillus fumigatus was 10 µg/mL; in the test on Candida tropicalis, more than 100 µg/mL; in test [1] it was less than 1 µg/mL; with Microsporum canis, less than 1 µg/mL; in the test with Mucor it was more than 100 µg/mL; in the test on Phialophora verrucosa, more than 100 µg/mL. In addition, the Inhibition with Saprolegnia is 10 µg/mL; in the test on Sporothrix schenckii, 10 µg/mL; with Streptococcus pyogenes, less than 1 µg/mL; in test [2], 100 µg/mL; in the test with Trichophyton benhamiae it was less than 1 µg/mL; in the test with Trichophyton rubrum it was less than 1 µg/mL. Also, the Inhibition was 10 µg/mL with Cryptococcus neoformans and more than 100 µg/mL in the test with Candida albicans. Besides, in test [3], the Ratio came out at 0.

Take `Fc1ccc(CC2COC(Cn3ccnc3)(c3ccc(Cl)cc3Cl)O2)cc1` (stereo not given): the Inhibition in the test on Aspergillus fumigatus was 10 µg/mL; in the test with Candida tropicalis, 100 µg/mL; in test [1] it was less than 1 µg/mL; with Microsporum canis, less than 1 µg/mL; with Mucor it was less than 1 µg/mL; in the test on Phialophora verrucosa, 100 µg/mL. The Inhibition is 10 µg/mL with Saprolegnia; 10 µg/mL in the test on Sporothrix schenckii; 10 µg/mL in the test on Streptococcus pyogenes; 10 µg/mL in [2]; less than 1 µg/mL with Trichophyton benhamiae; less than 1 µg/mL with Trichophyton rubrum. Besides, the Inhibition in the test with Cryptococcus neoformans worked out at 10 µg/mL; with Candida albicans, 100 µg/mL. In addition, in [3], the Ratio was 0.

As to `Clc1ccc(C2(Cn3ccnc3)OCC(c3ccccc3)O2)c(Cl)c1` (stereo not given), the Inhibition was less than 1 µg/mL with Aspergillus fumigatus; more than 100 µg/mL with Candida tropicalis; 10 µg/mL in test [1]; less than 1 µg/mL in the test on Microsporum canis; 100 µg/mL in the test on Mucor; 100 µg/mL with Phialophora verrucosa. In addition, the Inhibition was 100 µg/mL in the test on Saprolegnia; 10 µg/mL in the test on Sporothrix schenckii; 10 µg/mL in the test on Streptococcus pyogenes; more than 100 µg/mL in test [2]; less than 1 µg/mL with Trichophyton benhamiae; less than 1 µg/mL in the test with Trichophyton rubrum. Moreover, the Inhibition in the test with Cryptococcus neoformans and with Candida albicans was 100 µg/mL throughout. The Ratio in test [3] was 0.

For the compound `Clc1ccc(C2COC(Cn3ccnc3)(c3ccc(Cl)cc3Cl)O2)cc1` (stereo not given), the Inhibition with Aspergillus fumigatus is less than 1 µg/mL; with Candida tropicalis, 10 µg/mL; in [1] it was 1 µg/mL; in the test on Microsporum canis, less than 1 µg/mL; with Mucor, 10 µg/mL; in the test with Phialophora verrucosa, 100 µg/mL. For the same compound, the Inhibition is 100 µg/mL with Saprolegnia; 10 µg/mL in the test on Sporothrix schenckii; 1 µg/mL with Streptococcus pyogenes; 10 µg/mL in test [2]; less than 1 µg/mL in the test with Trichophyton benhamiae; less than 1 µg/mL in the test with Trichophyton rubrum. In addition, the Inhibition is less than 1 µg/mL in the test with Cryptococcus neoformans and 100 µg/mL in the test on Candida albicans. In addition, the Ratio in test [5] was 1.

For the compound `Clc1ccc(CC2COC(Cn3ccnc3)(c3ccc(Cl)cc3Cl)O2)cc1` (stereo not given), the Inhibition with Aspergillus fumigatus was 10 µg/mL; in the test with Candida tropicalis it was 10 µg/mL; in test [1] it was less than 1 µg/mL; in the test on Microsporum canis it was less than 1 µg/mL; in the test with Mucor, 10 µg/mL; in the test on Phialophora verrucosa, 100 µg/mL. Besides, the Inhibition in the test on Saprolegnia was 100 µg/mL; in the test with Sporothrix schenckii, 10 µg/mL; with Streptococcus pyogenes it was 100 µg/mL; in test [2] it was 10 µg/mL; with Trichophyton benhamiae, less than 1 µg/mL; in the test on Trichophyton rubrum, less than 1 µg/mL. Also, the Inhibition in the test with Cryptococcus neoformans amounted to 1 µg/mL; in the test on Candida albicans, 10 µg/mL. The values for the Ratio in test [4] and in test [6] were 2 and 0, respectively.

For the compound `Clc1ccc(C2(Cn3ccnc3)OCC(Cc3ccc(-c4ccccc4)cc3)O2)c(Cl)c1` (stereo not given), the Inhibition in the test with Aspergillus fumigatus is 10 µg/mL; in the test with Candida tropicalis, more than 100 µg/mL; in [1], 1 µg/mL; in the test with Microsporum canis, 10 µg/mL; with Mucor, more than 100 µg/mL; in the test on Phialophora verrucosa, more than 100 µg/mL. Also, the Inhibition with Saprolegnia is 100 µg/mL; in the test with Sporothrix schenckii it was 100 µg/mL; in the test with Streptococcus pyogenes it was 1 µg/mL; in test [2], 10 µg/mL; in the test on Trichophyton benhamiae, less than 1 µg/mL; with Trichophyton rubrum it was less than 1 µg/mL. The Inhibition is 100 µg/mL with Cryptococcus neoformans and more than 100 µg/mL in the test on Candida albicans. Moreover, in test [3], the Ratio stood at 0.

In the case of `Cc1ccc(CC2COC(Cn3ccnc3)(c3ccc(Cl)cc3Cl)O2)cc1` (stereo not given), the Inhibition in the test on Aspergillus fumigatus was 10 µg/mL; in the test with Candida tropicalis, more than 100 µg/mL; in test [1] it was less than 1 µg/mL; in the test on Microsporum canis, less than 1 µg/mL; in the test with Mucor, 10 µg/mL; in the test with Phialophora verrucosa, 100 µg/mL. The Inhibition with Saprolegnia was 10 µg/mL; with Sporothrix schenckii, 10 µg/mL; in the test on Streptococcus pyogenes, less than 1 µg/mL; in test [2], less than 1 µg/mL; in the test with Trichophyton benhamiae, less than 1 µg/mL; in the test on Trichophyton rubrum, less than 1 µg/mL. Moreover, the Inhibition with Cryptococcus neoformans is less than 1 µg/mL; in the test with Candida albicans, 10 µg/mL. Besides, the Ratio in [3] came out at 0.

For `Clc1ccc(C2COC(Cn3ccnc3)(c3ccc(Cl)cc3Cl)O2)c(Cl)c1` (stereo not given), the Inhibition with Aspergillus fumigatus is less than 1 µg/mL; with Candida tropicalis, more than 100 µg/mL; in test [1], less than 1 µg/mL; with Microsporum canis, 10 µg/mL; in the test with Mucor it was 10 µg/mL; in the test with Phialophora verrucosa, 100 µg/mL. Besides, the Inhibition with Saprolegnia is 100 µg/mL; with Sporothrix schenckii it was 10 µg/mL; in the test on Streptococcus pyogenes, less than 1 µg/mL; in test [2], 10 µg/mL; with Trichophyton benhamiae, less than 1 µg/mL; in the test with Trichophyton rubrum it was less than 1 µg/mL. The results for the Inhibition with Cryptococcus neoformans and in the test on Candida albicans were less than 1 µg/mL and more than 100 µg/mL, respectively. The Ratio in test [7] is on record as 2.

For the compound `Fc1ccc(C2COC(Cn3ccnc3)(c3ccc(Cl)cc3)O2)cc1` (stereo not given), the Inhibition in the test on Aspergillus fumigatus was less than 1 µg/mL; in the test with Candida tropicalis, 100 µg/mL; in test [1], 100 µg/mL; in the test with Microsporum canis it was less than 1 µg/mL; with Mucor it was 10 µg/mL; in the test on Phialophora verrucosa it was 100 µg/mL. For the same compound, the Inhibition in the test with Saprolegnia is 100 µg/mL; in the test on Sporothrix schenckii, 10 µg/mL; in the test with Streptococcus pyogenes it was 10 µg/mL; in [2], more than 100 µg/mL; in the test with Trichophyton benhamiae it was less than 1 µg/mL; in the test with Trichophyton rubrum it was less than 1 µg/mL. Besides, the Inhibition in the test with Cryptococcus neoformans was found to be 10 µg/mL; with Candida albicans, 100 µg/mL. Further, the Ratio in test [3] came to 0; in test [4], 1.
